In ChEMBL document CHEMBL1124541, “Antibacterials. Synthesis and structure-activity studies of 3-aryl-2-oxooxazolidines. 1. The "B" group” (1989):
≈ marks a conversion by molar mass, not a printed value.

Columns and labels:
Enterococcus faecalis [1] = test: In vitro minimum inhibitory concentration against Enterococcus faecalis (STCO-19); type: functional
Staphylococcus aureus [2] = test: In vitro minimum inhibitory concentration against Staphylococcus aureus (SFCO-1a); type: functional
Enterococcus faecalis [3] = tested on: Enterococcus faecalis
Staphylococcus aureus [4] = tested on: Staphylococcus aureus

Molecule	MIC (Enterococcus faecalis [1])	MIC (Staphylococcus aureus [2])	MIC (Enterococcus faecalis [3])	MIC (Staphylococcus aureus [4])
CC(=O)c1ccc(N2CC(CN3CCOCC3)OC2=O)cc1 (stereo not given)	> 128 µg/mL	> 128 µg/mL		
COC(=O)c1nnn(CC2CN(c3ccc(C(C)=O)cc3)C(=O)O2)c1C(=O)OC (stereo not given)	> 128 µg/mL	> 128 µg/mL		
CC(=O)c1ccc(N2CC(C)OC2=O)cc1 (stereo not given)	> 128 µg/mL	> 128 µg/mL		
GENTAMICIN			16 µg/mL	0.25 µg/mL
CSc1ccc(N2CC(C)OC2=O)cc1 (stereo not given)	> 128 µg/mL	> 128 µg/mL		
CC(=O)CC(=O)NC[C@H]1CN(c2ccc(C(C)=O)cc2)C(=O)O1	16 µg/mL (≈ 50.3 µM)	8 µg/mL (≈ 25.1 µM)		
CS(=O)(=O)c1ccc(N2CC(CN=[N+]=[N-])OC2=O)cc1 (stereo not given)	8 µg/mL (≈ 27 µM)	16 µg/mL (≈ 54 µM)		
CC(=O)NCC1CN(c2ccc(S(N)(=O)=O)cc2)C(=O)O1 (stereo not given)	16 µg/mL (≈ 51.1 µM)	32 µg/mL (≈ 102 µM)		
CC(=O)NC[C@H]1CN(c2ccc(C(C)=O)cc2)C(=O)O1 [DUP-721]	1 µg/mL (≈ 3.62 µM)	0.5 µg/mL (≈ 1.81 µM)		
CSc1ccc(N2CC(CO)OC2=O)cc1 (stereo not given)	128 µg/mL (≈ 535 µM)	128 µg/mL (≈ 535 µM)		
CC(=O)c1ccc(N2C[C@H](CNC(=O)N(C)C)OC2=O)cc1	128 µg/mL (≈ 419 µM)	128 µg/mL (≈ 419 µM)		
CCCC(=O)OCC1CN(c2ccc(C(C)=O)cc2)C(=O)O1 (stereo not given)	> 128 µg/mL	64 µg/mL (≈ 210 µM)		
CS(=O)(=O)c1ccc(N2CC(CO)OC2=O)cc1 (stereo not given)	16 µg/mL (≈ 59 µM)	16 µg/mL (≈ 59 µM)		
CC(=O)NCC1CN(c2ccc([S+](C)[O-])cc2)C(=O)O1 (stereo not given)	4 µg/mL (≈ 13.5 µM)	4 µg/mL (≈ 13.5 µM)		
CC(=O)NCC1CN(c2ccc(C(C)C)cc2)C(=O)O1 (stereo not given)	4 µg/mL (≈ 14.5 µM)	4 µg/mL (≈ 14.5 µM)		
CC(=O)c1ccc(N2CC(CO)OC2=O)cc1 (stereo not given)	16 µg/mL (≈ 68 µM)	16 µg/mL (≈ 68 µM)		
CC(=O)c1ccc(N2C[C@H](CNC(=O)CSC#N)OC2=O)cc1	32 µg/mL (≈ 96 µM)	32 µg/mL (≈ 96 µM)		
CC(=O)OCC1CN(c2ccc(C(C)C)cc2)C(=O)O1 (stereo not given)	128 µg/mL (≈ 462 µM)	128 µg/mL (≈ 462 µM)		
CC(=O)c1ccc(N2C[C@H](CNC(=O)C3CC3)OC2=O)cc1	4 µg/mL (≈ 13.2 µM)	8 µg/mL (≈ 26.5 µM)		
CC(=O)c1ccc(N2CC(COP(=O)(O)O)OC2=O)cc1 (stereo not given)	> 128 µg/mL	> 128 µg/mL		

Molecule	MIC (Enterococcus faecalis [1])	MIC (Staphylococcus aureus [2])	MIC (Enterococcus faecalis [3])	MIC (Staphylococcus aureus [4])
CC(=O)c1ccc(N2CC(CN)OC2=O)cc1 (stereo not given)	> 128 µg/mL	> 128 µg/mL		
CC(=O)c1ccc(N2CC(CF)OC2=O)cc1 (stereo not given)	128 µg/mL (≈ 540 µM)	64 µg/mL (≈ 270 µM)		
CCCC(=O)NC[C@H]1CN(c2ccc(C(C)=O)cc2)C(=O)O1	8 µg/mL (≈ 26.3 µM)	8 µg/mL (≈ 26.3 µM)		
CC(=O)c1ccc(N2C[C@H](CNC(=O)C(Cl)Cl)OC2=O)cc1	2 µg/mL (≈ 5.79 µM)	2 µg/mL (≈ 5.79 µM)		
CC(=O)c1ccc(N2CC(CN)OC2=O)cc1.Cl (stereo not given)	> 128 µg/mL	> 128 µg/mL		
CC(=O)c1ccc(N2C[C@H](CNC(=O)C(C)C)OC2=O)cc1	16 µg/mL (≈ 52.6 µM)	8 µg/mL (≈ 26.3 µM)		
CS(=O)(=O)c1ccc(N2CC(CCl)OC2=O)cc1 (stereo not given)	4 µg/mL (≈ 13.8 µM)	8 µg/mL (≈ 27.6 µM)		
CSc1ccc(N2CC(CCl)OC2=O)cc1 (stereo not given)	> 128 µg/mL	> 128 µg/mL		
CC(=O)c1ccc(N2C[C@H](CNC(=O)CC#N)OC2=O)cc1	8 µg/mL (≈ 26.6 µM)	16 µg/mL (≈ 53.1 µM)		
[N-]=[N+]=NCC1CN(c2ccc(S(N)(=O)=O)cc2)C(=O)O1 (stereo not given)	64 µg/mL (≈ 215 µM)	32 µg/mL (≈ 108 µM)		
CC(=O)NCC(=O)NC[C@H]1CN(c2ccc(C(C)=O)cc2)C(=O)O1	> 128 µg/mL	128 µg/mL (≈ 384 µM)		
CC(=O)c1ccc(N2C[C@H](CNC(N)=O)OC2=O)cc1	1 µg/mL (≈ 3.61 µM)	4 µg/mL (≈ 14.4 µM)		
CC(=O)c1ccc(N2C[C@H](CNC(=O)OC(C)(C)C)OC2=O)cc1	128 µg/mL (≈ 383 µM)	128 µg/mL (≈ 383 µM)		
CSc1ccc(N2CC(CNC(C)=O)OC2=O)cc1 (stereo not given)	4 µg/mL (≈ 14.3 µM)	4 µg/mL (≈ 14.3 µM)		
CCC1CN(c2ccc(C(C)C)cc2)C(=O)O1 (stereo not given)	> 128 µg/mL	> 128 µg/mL		
NS(=O)(=O)c1ccc(N2CC(CCl)OC2=O)cc1 (stereo not given)	> 128 µg/mL	16 µg/mL (≈ 55 µM)		
CC1CN(c2ccc(C(C)C)cc2)C(=O)O1 (stereo not given)	128 µg/mL (≈ 584 µM)	128 µg/mL (≈ 584 µM)		
CCC1CN(c2ccc(S(C)(=O)=O)cc2)C(=O)O1 (stereo not given)	128 µg/mL (≈ 475 µM)	128 µg/mL (≈ 475 µM)		
CC(=O)c1ccc(N2CC(CN=[N+]=[N-])OC2=O)cc1 (stereo not given)	> 128 µg/mL	> 128 µg/mL		
CC1=C(C(=O)O)N2C(=O)[C@@H](NC(=O)[C@H](N)c3ccccc3)[C@H]2SC1 [CEPHALEXIN ANHYDROUS]	64 µg/mL (≈ 184 µM)	0.5 µg/mL (≈ 1.44 µM)		

Molecule	MIC (Enterococcus faecalis [1])	MIC (Staphylococcus aureus [2])	MIC (Enterococcus faecalis [3])	MIC (Staphylococcus aureus [4])
C[S+]([O-])c1ccc(N2CC(CCl)OC2=O)cc1 (stereo not given)	32 µg/mL (≈ 117 µM)	32 µg/mL (≈ 117 µM)		
CC(C)c1ccc(N2CC(CO)OC2=O)cc1 (stereo not given)	32 µg/mL (≈ 136 µM)	64 µg/mL (≈ 272 µM)		
NS(=O)(=O)c1ccc(N2CC(CO)OC2=O)cc1 (stereo not given)	128 µg/mL (≈ 470 µM)	128 µg/mL (≈ 470 µM)		
C[S+]([O-])c1ccc(N2CC(CO)OC2=O)cc1 (stereo not given)	64 µg/mL (≈ 251 µM)	64 µg/mL (≈ 251 µM)		
CS(=O)(=O)c1ccc(N2CC(CN)OC2=O)cc1 (stereo not given)	> 128 µg/mL	> 128 µg/mL		
COCC(=O)NC[C@H]1CN(c2ccc(C(C)=O)cc2)C(=O)O1	32 µg/mL (≈ 104 µM)	32 µg/mL (≈ 104 µM)		
CC(C)c1ccc(N2CC(CN=[N+]=[N-])OC2=O)cc1 (stereo not given)	> 128 µg/mL	> 128 µg/mL		
CC(C)c1ccc(N2CC(CCl)OC2=O)cc1 (stereo not given)	64 µg/mL (≈ 252 µM)	64 µg/mL (≈ 252 µM)		
C=CC1CN(c2ccc(C(C)=O)cc2)C(=O)O1 (stereo not given)	> 128 µg/mL	> 128 µg/mL		
CC1CN(c2ccc(S(C)(=O)=O)cc2)C(=O)O1 (stereo not given)	128 µg/mL (≈ 501 µM)	64 µg/mL (≈ 251 µM)		
CC(=O)c1ccc(N2CC(CCl)OC2=O)cc1 (stereo not given)	64 µg/mL (≈ 252 µM)	32 µg/mL (≈ 126 µM)		
CC(=O)c1ccc(N2C[C@H](CNC=O)OC2=O)cc1	8 µg/mL (≈ 30.5 µM)	4 µg/mL (≈ 15.3 µM)		
CC(=O)NCC1CN(c2ccc(S(C)(=O)=O)cc2)C(=O)O1 (stereo not given)	4 µg/mL (≈ 12.8 µM)	4 µg/mL (≈ 12.8 µM)		
CN[C@H](CC(C)C)C(=O)N[C@H]1C(=O)N[C@@H](CC(N)=O)C(=O)N[C@H]2C(=O)N[C@H]3C(=O)N[C@H](C(=O)N[C@H](C(=O)O)c4cc(O)cc(O)c4-c4cc3ccc4O)[C@H](O)c3ccc(c(Cl)c3)Oc3cc2cc(c3O[C@@H]2O[C@H](CO)[C@@H](O)[C@H](O)[C@H]2O[C@H]2C[C@](C)(N)[C@H](O)[C@H](C)O2)Oc2ccc(cc2Cl)[C@H]1O [VANCOMYCIN]	2 µg/mL (≈ 1.38 µM)			
CC(=O)c1ccc(N2CC(COS(=O)(=O)c3ccc(C)cc3)OC2=O)cc1 (stereo not given)	8 µg/mL (≈ 20.5 µM)	8 µg/mL (≈ 20.5 µM)		
CC(=O)c1ccc(N2CC(CN3C(=O)c4ccccc4C3=O)OC2=O)cc1 (stereo not given)	> 128 µg/mL	> 128 µg/mL		
COC(=O)NC[C@H]1CN(c2ccc(C(C)=O)cc2)C(=O)O1	4 µg/mL (≈ 13.7 µM)	4 µg/mL (≈ 13.7 µM)		
CCC(=O)NC[C@H]1CN(c2ccc(C(C)=O)cc2)C(=O)O1	4 µg/mL (≈ 13.8 µM)	4 µg/mL (≈ 13.8 µM)		
